What is called viability is a read-out of living cells in per cent, often relative to untreated cells.

The results in this text go back to article PMC12040169 (PLOS Biology, 2025).

The nature of the data set: in vitro. The following applies: human, hela cells, % viability.
Turning to `CC(C)Cc1ccc(S(=O)(=O)Nc2ccc3[nH]c(=O)[nH]c3c2)cc1` [CBK270131], the viability at 28.5 h, 10 µM stood at 94.3%.
With `CCC(Oc1ccc(C)cc1)C(=O)Nc1ccccc1C(=O)N1CCOCC1` (stereo not drawn) [CBK270132], the viability at 28.5 h, 10 µM came out at 85.6%.
For `COCCNCc1ccc(OCc2ccccc2)cc1` [CBK270133C], the viability at 28.5 h, 10 µM is 91.1%.
Take `O=C(O)c1ccc(NC(=O)c2cccc(-n3cnnc3)c2)cc1` [CBK270134]: the viability at 28.5 h, 10 µM came to 104%.
The same measure for `CCNCCOc1c(C)cc(C)cc1C` [CBK270137C]: 108%; for `COc1ccc(CNC(=O)CCn2c(=O)oc3ccccc32)cc1` [CBK270138]: 92.7%; for `Cc1cn2c3c(=O)n(C)c(=O)n(C)c3nc2n1CCN1CCOCC1` [CBK270139]: 91.7%.
`O=C1c2ccccc2C(=O)N1CCCc1nn2c(-c3cccnc3)nnc2s1` [CBK270140]: the viability at 28.5 h, 10 µM stood at 80.2%.
In the case of `COc1c(Cl)cc(Cl)cc1CNCc1cccnc1` [CBK270142C], the viability at 28.5 h, 10 µM was found to be 94.2%.
Take `COc1ccc(CN2CCNC(=O)C2CC(=O)O)c(F)c1` (stereo not drawn) [CBK270143]: the viability at 28.5 h, 10 µM came to 95.6%.
Take `c1ccc2c(c1)nc(N1CCNCC1)n1cnnc21` [CBK270145]: the viability at 28.5 h, 10 µM stood at 100%.
For the molecule `Cc1nnc2c(N3CCN(CCO)CC3)nc3ccccc3n12` [CBK270146], the viability at 28.5 h, 10 µM was determined as 83.2%.
`CCOc1cc(S(=O)(=O)NCc2ccncc2)ccc1Br` [CBK270147]: the viability at 28.5 h, 10 µM worked out at 82.3%.
The same measure for `O=C(Nc1ccccc1-c1nc2ccccc2[nH]1)c1ccncc1` [CBK270148]: 94.5%; for `COc1cccc(NC(=O)CCS(=O)(=O)c2ccccc2)c1` [CBK270150]: 91.9%; for `CS(=O)(=O)N1CCC(C(=O)NCCN2CCOCC2)CC1` [CBK270151]: 100%.
The same measure for `FC(F)(F)c1ccc(Oc2ccc(-c3noc(-c4ccccn4)n3)cc2)nc1` [CBK270152]: 90.1%.
For the molecule `Cc1cc(C)nc(NCCC(=O)O)n1` [CBK270154], the viability at 28.5 h, 10 µM is 89.1%.
In the case of `O=C1COc2ccc(S(=O)(=O)NCc3ccccc3)cc2N1` [CBK270156], the viability at 28.5 h, 10 µM was determined as 93.7%.
Take `Cc1ccc(NC2=NC3(N=C(N)N2)C(=O)N(C)c2ccccc23)cc1` (stereo not drawn) [CBK270157]: the viability at 28.5 h, 10 µM is 84.9%.
Regarding `Cc1cc2c(cc1S(=O)(=O)NCc1ccccc1)NC(=O)CO2` [CBK270159], the viability at 28.5 h, 10 µM was 85.2%.
On to `COc1ccc(CCNC(=O)c2n[nH]c(=O)c3ccccc23)cc1OC` [CBK270160], for which the viability at 28.5 h, 10 µM worked out at 87.6%.
As to `O=C1COc2ccc(S(=O)(=O)NCCc3ccccc3)cc2N1` [CBK270162], the viability at 28.5 h, 10 µM was found to be 114%.
On to `Cc1ccc(Nc2nc(N)nc(CN3CCCC3)n2)cc1` [CBK270163], for which the viability at 28.5 h, 10 µM came out at 97.7%.
On to `Cc1cc(C)nc(-n2[nH]c(N)cc2=O)n1` [CBK270164], for which the viability at 28.5 h, 10 µM stood at 85.7%.
For the molecule `CCc1nnc(SCC(=O)Nc2cc(OC)ccc2OC)[nH]1` [CBK270167], the viability at 28.5 h, 10 µM is 85.1%.
Regarding `CCCNS(=O)(=O)c1ccc(OCC(=O)N2CCN(C)CC2)c(C)c1` [CBK270169], the viability at 28.5 h, 10 µM turned out to be 102%.
The same measure for `Cc1ccc(Cc2c(C)nc(N3CCN(Cc4ccccc4)CC3)[nH]c2=O)cc1` [CBK270170]: 115%; for `CCc1c(C)nc(SC(C(=O)O)c2ccccc2)c(C#N)c1C` (stereo not drawn) [CBK270174]: 94.9%.
For `O=C(O)C1=NN(c2ccccc2)C(=O)CC1` [CBK270176], the viability at 28.5 h, 10 µM was found to be 84.4%.
For `CCOc1ccc(S(=O)(=O)NC(C)C(=O)O)cc1C` (stereo not drawn) [CBK270178], the viability at 28.5 h, 10 µM amounted to 114%.
`CNS(=O)(=O)c1cc(C(=O)O)ccc1OC` [CBK270179]: the viability at 28.5 h, 10 µM came out at 104%.
With `CCCSc1ccc2[nH]c(NC(=O)CSc3nc[nH]n3)nc2c1` [CBK270181], the viability at 28.5 h, 10 µM amounted to 51.8%.
On to `O=C(NCc1ccc(-c2nc3ncccc3o2)cc1)c1ccc(F)cc1` [CBK270182], for which the viability at 28.5 h, 10 µM was determined as 91.3%.
Take `CCn1c(CN2CCOCC2)nnc1SCC(=O)Nc1cc(Cl)ccc1C` [CBK270183]: the viability at 28.5 h, 10 µM turned out to be 93.8%.
Consider `Nc1c(C(=O)c2ccc3c(c2)OCO3)sc2nc(-c3cccnc3)ccc12` [CBK270186], for which the viability at 28.5 h, 10 µM worked out at 86.3%.
In the case of `CN(C)c1nc(NC2CC2)nc(Oc2ccc(=O)n(-c3ccccc3)n2)n1` [CBK270187], the viability at 28.5 h, 10 µM amounted to 93.9%.
For the molecule `CC(=O)c1cc(C#N)c(SCC(=O)O)nc1C` [CBK270189], the viability at 28.5 h, 10 µM came out at 95.8%.
Consider `COCc1cc(C)n(CC(=O)Nc2ccc(N3CCOCC3)cc2)c(=O)c1C#N` [CBK270190], for which the viability at 28.5 h, 10 µM stood at 95.2%.
Take `N#Cc1cnc2c(-c3ccccc3)c(Cc3ccccc3)nn2c1N` [CBK270191]: the viability at 28.5 h, 10 µM was 91.8%.
As for `CNS(=O)(=O)c1cc(C(=O)N2CCN(c3ccccc3)CC2)ccc1OC` [CBK270192], the viability at 28.5 h, 10 µM was 88.9%.
For the molecule `O=C(O)c1cccc(CSc2nc3ccccc3o2)c1` [CBK270193], the viability at 28.5 h, 10 µM is 91.7%.
Consider `O=C(NCc1cccnc1)c1cc2c(ccc3ccccc32)oc1=O` [CBK270195], for which the viability at 28.5 h, 10 µM was 95.7%.
Take `Cc1cc2c(cc1S(=O)(=O)NCCc1ccccc1)NC(=O)CO2` [CBK270196]: the viability at 28.5 h, 10 µM was 102%.
For `Cc1ccc(-c2noc(CNC(=O)CSc3ccccc3)n2)cc1` [CBK270199], the viability at 28.5 h, 10 µM is 91.5%.
As for `COc1cc(CNCc2ccco2)ccc1OCC(N)=O` [CBK270204C], the viability at 28.5 h, 10 µM was determined as 105%.
As for `Cc1c(C(=O)NCCCN2CCOCC2)oc2c1C(=O)CCC2` [CBK270207], the viability at 28.5 h, 10 µM worked out at 93.1%.
Consider `O=S(=O)(NCCn1cccc1)c1ccc2ccccc2c1` [CBK270211], for which the viability at 28.5 h, 10 µM worked out at 90.4%.
The same measure for `COc1c(Cl)cc(Cl)cc1CNC(C)(C)CO` [CBK270212C]: 102%; for `COc1ccc(NC(=O)CSc2ncnc3ccccc23)cc1` [CBK270215]: 94%; for `COc1ccc(NS(=O)(=O)c2ccc(N3CCCC3=O)cc2)cn1` [CBK270216]: 84.9%.
As to `Cc1cc(NC(=O)c2sc3nc4c(cc3c2N)N2CCC4CC2)no1` [CBK270217], the viability at 28.5 h, 10 µM was found to be 100%.
For the molecule `COc1ccc(C(NC(C)=O)c2nccc3cc(OC)c(OC)cc23)cc1OC` (stereo not drawn) [CBK270219], the viability at 28.5 h, 10 µM was determined as 94.6%.
Turning to `O=c1cc(O)c2sc3nc(-c4ccco4)cc(C(F)(F)F)c3c2[nH]1` [CBK270223], the viability at 28.5 h, 10 µM worked out at 98.2%.
For the molecule `CCc1nnc(SCC(=O)Nc2cccc(OC)c2)[nH]1` [CBK270226], the viability at 28.5 h, 10 µM came out at 93.7%.
`COCc1cc(C)nc(OCC(=O)N2CCCCC2)c1C#N` [CBK270228]: the viability at 28.5 h, 10 µM stood at 104%.
As for `COc1ccc2c(C)nc(NC3=NC(c4ccccc4)CC(=O)N3)nc2c1` (stereo not drawn) [CBK270230], the viability at 28.5 h, 10 µM was 85.4%.
For `O=C(O)CC(Cc1ccccc1)c1ccc(Cl)cc1` (stereo not drawn) [CBK270231] the value was 89.6%; for `CC(O)CNCc1ccc(OCC(=O)NC(C)(C)C)cc1` (stereo not drawn) [CBK270232C], 87.1%; for `COc1ccc(Cl)cc1S(=O)(=O)NC(C)C(=O)O` (stereo not drawn) [CBK270233], 106%.
The same measure for `c1cc(CSc2nnc(-c3ccncc3)o2)ccn1` [CBK270235]: 92.3%.
As for `CCc1[nH]nc2c1C(C1C=CCCC1)C(C#N)=C(N)O2` (stereo not drawn) [CBK270236], the viability at 28.5 h, 10 µM was found to be 92.9%.
Regarding `COc1cc(CNCc2cccs2)cc(Cl)c1OCC(N)=O` [CBK270237C], the viability at 28.5 h, 10 µM worked out at 87.6%.
For the molecule `COc1cc(CNCC2CCCO2)cc(Cl)c1OCC(N)=O` (stereo not drawn) [CBK270238C], the viability at 28.5 h, 10 µM is 88.4%.
With `Cc1nnc(CSc2nnc(-c3ccc(Cl)cc3)[nH]2)o1` [CBK270241], the viability at 28.5 h, 10 µM turned out to be 102%.
`Cn1c(=O)n(C)c2cc(CNc3nn[nH]n3)ccc21` [CBK270243]: the viability at 28.5 h, 10 µM came to 92.4%.
In the case of `Cc1ccc(-c2nnc(SCC(=O)Nc3ccc(N4CCOCC4)cc3)n2C)cc1` [CBK270247], the viability at 28.5 h, 10 µM stood at 111%.
For the molecule `O=C(Nc1ccc(-n2cc(Cl)cn2)cc1)c1ccncc1` [CBK270249], the viability at 28.5 h, 10 µM is 88.2%.
Consider `N#Cc1c(Nc2cccc(F)c2)sc2c(O)cc(O)nc12` [CBK270250], for which the viability at 28.5 h, 10 µM came out at 100%.
Consider `COc1ccc(C(=O)Nc2c(Cl)ccc3nsnc23)cc1` [CBK270252], for which the viability at 28.5 h, 10 µM was found to be 87.2%.
`COCc1cc(=O)[nH]c(N2CCN(Cc3ccccc3)CC2)n1` [CBK270253]: the viability at 28.5 h, 10 µM was determined as 88.4%.
Turning to `Cc1nn(-c2nc3ccccc3s2)c(O)c1C` [CBK270254], the viability at 28.5 h, 10 µM came out at 87.8%.
For `O=C(Nc1cccc(-c2csnn2)c1)c1ccco1` [CBK270255], the viability at 28.5 h, 10 µM is 85.2%.
The same measure for `COC(=O)c1ccc(N2CCOCC2)c(NC(=O)c2cccnc2)c1` [CBK270257]: 95.9%.
Turning to `CCn1c(CN2CCOCC2)nnc1SCC(=O)Nc1cc(C)cc(C)c1` [CBK270258], the viability at 28.5 h, 10 µM stood at 95.9%.
`O=C(CN1C(=O)COc2ccccc21)NC1CC1` [CBK270261]: the viability at 28.5 h, 10 µM turned out to be 96%.
For `CCOC(=O)c1ccc(N2CCN(C(C)=O)CC2)c(NC(=O)c2cccc(F)c2)c1` [CBK270263] the value was 93.8%; for `COc1ccc(C(=O)Nc2ccc(N3CCN(C(=O)C(C)(C)C)CC3)cc2)cc1` [CBK270266], 99%.
Regarding `CCN1CCN(c2ccc(C(=O)OC)cc2NC(=O)c2ccccc2Cl)CC1` [CBK270267], the viability at 28.5 h, 10 µM stood at 98.3%.
On to `Cc1ccc2nc(-c3ccccc3)c(C)c(C(=O)O)c2c1` [CBK270268], for which the viability at 28.5 h, 10 µM was 87.6%.
On to `COc1ccc(C)cc1NC(=O)C1CC(=O)Nc2ncnn21` (stereo not drawn) [CBK270274], for which the viability at 28.5 h, 10 µM was 99.5%.
As to `CC(C)Oc1cccc(C(=O)Nc2ccc(N3CCN(C(=O)C(C)(C)C)CC3)cc2)c1` [CBK270280], the viability at 28.5 h, 10 µM was 88.7%.
As to `Cc1ccc(OCC(=O)Nc2cccnc2)c(-n2nc3ccccc3n2)c1` [CBK270281], the viability at 28.5 h, 10 µM is 90.9%.
Take `Cc1ccc(Cl)cc1N1CCN(S(=O)(=O)N(C)C)CC1` [CBK270284]: the viability at 28.5 h, 10 µM worked out at 101%.
